Test results published in the NIST ThermoML archive (doi:10.1021/je101361u).

Assay: xn = mol fraction of the nth substance listed
Conditions: 101.3 kPa, Liquid, Vibrating tube method

CCOCCOCCOCC [diethylene glycol diethyl ether] + ClCCCl
mass density [kg/m3]
Conditions	308.15 K	313.15 K	318.15 K	323.15 K	328.15 K	333.15 K
x2 = 0	–	–	–	877.66	–	–
x2 = 0.0234	–	891.38	886.51	881.62	876.73	871.83
x2 = 0.0504	–	895.82	890.92	886	881.07	876.13
x2 = 0.0751	–	900.01	895.06	890.1	885.15	880.18
x2 = 0.1009	–	904.54	899.56	894.58	889.59	884.59
x2 = 0.1504	–	913.47	908.43	903.37	898.31	893.23
x2 = 0.2	–	923.09	917.97	912.84	907.7	902.54
x2 = 0.2546	–	934.27	929.05	923.83	918.61	913.36
x2 = 0.2999	–	944.04	938.75	933.46	928.16	922.86
x2 = 0.35	–	955.6	950.21	944.83	939.44	934.03
x2 = 0.4006	–	968.06	962.59	957.11	951.61	946.09
x2 = 0.4502	–	981.1	975.52	969.94	964.34	958.72
x2 = 0.5002	1000.88	995.21	989.52	983.83	978.12	972.39
x2 = 0.5499	1016.02	1010.23	1004.42	998.59	992.77	986.94
x2 = 0.6	1032.44	1026.51	1020.6	1014.67	1008.71	1002.74
x2 = 0.65	1050.11	1044.07	1038	1031.92	1025.84	1019.73
x2 = 0.6999	1069.3	1063.11	1056.9	1050.67	1044.44	1038.18
x2 = 0.7492	1089.67	1083.34	1077	1070.63	1064.24	1057.81
x2 = 0.8	1112.94	1106.44	1099.91	1093.36	1086.78	1080.17
x2 = 0.85	1137.96	1131.28	1124.57	1117.84	1111.08	1104.27
x2 = 0.9	1165.64	1158.75	1151.82	1144.87	1137.9	1130.88
x2 = 0.95	1196.36	1189.24	1182.08	1174.86	1167.69	1160.44
x2 = 0.975	1213.1	1205.85	1198.56	1191.23	1183.9	1176.53
